Source: US6255073A (priority 1998, dated 2001)

T1: K^b sol (Mus musculus, UniProt P01901)
T1 sequence (P01901 22-305 limits assumed): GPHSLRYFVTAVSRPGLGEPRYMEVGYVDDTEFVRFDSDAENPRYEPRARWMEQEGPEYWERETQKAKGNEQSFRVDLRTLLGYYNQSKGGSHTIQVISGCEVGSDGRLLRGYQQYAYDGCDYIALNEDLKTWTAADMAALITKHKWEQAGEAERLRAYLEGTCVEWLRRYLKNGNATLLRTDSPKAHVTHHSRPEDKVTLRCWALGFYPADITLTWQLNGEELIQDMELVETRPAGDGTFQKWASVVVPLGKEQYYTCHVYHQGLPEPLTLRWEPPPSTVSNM
T1 sequence (P01887 21-119 partner): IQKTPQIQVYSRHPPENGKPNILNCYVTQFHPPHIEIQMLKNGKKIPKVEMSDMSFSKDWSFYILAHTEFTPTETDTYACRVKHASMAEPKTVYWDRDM


Tests used:
[1] = biological target: T1, K^b sol; assay: biochemical; conditions: read-out: dissociation rate constant
[2] = tested on: B3/CD8 T-cell hybridoma; assay: Antigen presentation assay: K^b/β2 Drosophila cells cocultured with T-cell hybridoma B3/CD8, IL-2 by CTLL 3H thymidine incorporation; assay type: cell-based, murine; conditions: Drosophila cells transfected with K^b/β2; peptide added to medium or protein osmotically loaded
Method: Osmotic loading of SC2 and 3T3 cells with ovalbumin protein was carried out as described by Moore, et al., Cell 54: 777-785 (1988). The assay procedure is as follows. In a 96-well dish, 1×10^5 Drosophila cells (with or without peptide/protein loaded) or 3T3 cells were cocultured with 1×10^5 B3/CD8 T-cell hybridoma cells in 200 μl of RPMI media supplemented with 10 fetal bovine serum. After 24 hours of incubation, 100 μl of the supernatant from these cultures was added to 100 μl of RPMI containing 5,000 CTLL cells. The cells were cocultured for 24 hours at 37° C. when 1 μCi of ^3 H thymidine (Amersham) was added. After a further incubation of 15 hours at 37° C., the incorporation of radiolabel into the CTLL cells was determined by scintillation counting.
Assays conducted with murine MHC also verified that the insect cells are capable of loading peptide onto the Class I molecules. Cells expressing as few as 200-500 MHC molecules containing a particular antigen can be detected by a T-cell. […] Upon antigenic stimulation, B3/CD8 produces IL-2, measured by ^3 H thymidine incorporation in IL-2-dependenT-cell line CTLL (Gillis, et al., J. Immunol. 120: 2027 91978)). Thus, by measuring the amount of IL-2 produced, one can assay for T-cell recognition. […]

| Molecule | koff [1] [s⁻¹] | T-cell recognition (IL-2 production by B3/CD8) [2] |
| --- | --- | --- |
| CC(C)C[C@H](NC(=O)CNC(=O)[C@H](CCC(N)=O)NC(=O)[C@H](Cc1ccc(O)cc1)NC(=O)[C@@H](NC(=O)[C@H](Cc1ccc(O)cc1)NC(=O)CNC(=O)[C@@H](N)CCCNC(=N)N)C(C)C)C(=O)O [[^125 I]VSV-8] | 0.00032 |  |
| ovalbumin (protein, UniProt P01012 2-386, looked up, ovalbumin (Sigma Chem. Co.) osmotically loaded into the cells) Ovalbumin: GSIGAASMEFCFDVFKELKVHHANENIFYCPIAIMSALAMVYLGAKDSTRTQINKVVRFDKLPGFGDSIEAQCGTSVNVHSSLRDILNQITKPNDVYSFSLASRLYAEERYPILPEYLQCVKELYRGGLEPINFQTAADQARELINSWVESQTNGIIRNVLQPSSVDSQTAMVLVNAIVFKGLWEKAFKDEDTQAMPFRVTEQESKPVQMMYQIGLFRVASMASEKMKILELPFASGTMSMLVLLPDEVSGLEQLESIINFEKLTEWTSSNVMEERKIKVYLPRMKMEEKYNLTSVLMAMGITDVFSSSANLSGISSAESLKISQAVHAAHAEINEAGREVVGSAEAGVDAASVSEEFRADHPFLFCIKHIATNAVLFFGRCVSP |  | no recognition occurred |
